{"source": "paper PMC2810191", "about": "(Biochemistry, 2009)", "origin": "cited, not measured here", "test_system": "Bacillus anthracis"}
{"smiles": "CCc1nc(N)nc(N)c1C#CCc1cc(OC)ccc1OC", "note": "[UCP120B, 2,4-diamino-5-(3-(2,5-dimethoxyphenyl)prop-1-ynyl)-6-ethyl-pyrimidine]", "values": [{"measurement": "inhibition of growth of the bacteria", "result": "modestly inhibits the growth of the bacteria"}]}
